According to patent publication US20230373985A1 (Origenis Gmbh, priority 2020, published 2023):

molecular target: T1, wt human TYK2, catalytic site (Homo sapiens, UniProt P29597); test: HTRF KinEASE assay, TYK2; format: biochemical; settings: 1 μM ATP; read-out: IC50, Activity Toward TYK2
T1 construct: wt human TYK2, catalytic site; purchased SignalChem
T1 sequence (P29597 897-1176 limits assumed): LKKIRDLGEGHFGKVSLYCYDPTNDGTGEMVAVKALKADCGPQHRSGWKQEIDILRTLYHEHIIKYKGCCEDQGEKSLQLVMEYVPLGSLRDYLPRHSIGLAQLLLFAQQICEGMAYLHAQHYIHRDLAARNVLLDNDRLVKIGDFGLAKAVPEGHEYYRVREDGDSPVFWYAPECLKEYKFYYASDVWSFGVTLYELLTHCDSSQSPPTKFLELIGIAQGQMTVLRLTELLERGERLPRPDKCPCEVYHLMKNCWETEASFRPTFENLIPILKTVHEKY
Description: Basic protocol for HTRF KinEASE assay (Cisbio/FRA) inhibitor studies involved two steps: • Enzymatic step: Addition of 4 μL of test compound in corresponding DMSO dilutions, 4 μL of kinase/substrate mixture, 2 μL of ATP into 384 well small volume plates. Incubation for at least 30 minutes at room temperature. • Detection step: Addition of 5 μL antibody and 5 μL streptavidin-XL665, read plate after 60 minutes. Data analysis of emission ratios according KinEASE assay protocol.
(§1) Kinase and assay components were adjusted to final concentrations according to kit protocol. For TYK2: 2 nM wt human TYK2, catalytic site (SignalChem/CAN), 1 μM HTRF KinEASE-TK Substrate-biotin, 1 μM ATP in 1× Kinase Buffer. For JAK1: 4 nM wt human JAK1, catalytic site (ThermoFisher/USA), 1 μM HTRF KinEASE-TK Substrate-biotin, 2.5 μM ATP in 1× Kinase Buffer. For JAK2: 1 nM wt human JAK2, catalytic site (SignalChem/CAN), 1 μM HTRF KinEASE-TK Substrate-biotin, 100 μM ATP in 1× Kinase Buffer.
as §1

Structure (SMILES) | IC50
CCCn1cc(C(F)(F)F)nc1-c1ccc(Nc2cn(-c3c(Cl)cccc3Cl)nc2C(N)=O)cc1 [compound 311, 1-(2,6-dichlorophenyl)-4-((4-(1-propyl-4-(trifluoromethyl)-1H-imidazol-2-yl)phenyl)amino)-1H-pyrazole-3-carboxamide] | 0.1 to 1 µM
COCc1nc(C(F)(F)F)nn1-c1ccc(Nc2cn(-c3c(Cl)cccc3Cl)nc2C(N)=O)cn1 [compound 328, 1-(2,6-dichlorophenyl)-4-((6-(5-(methoxymethyl)-3-(trifluoromethyl)-1H-1,2,4-triazol-1-yl)pyridin-3-yl)amino)-1H-pyrazole-3-carboxamide] | 0.1 to 1 µM
CCc1nc(C(F)(F)F)nn1-c1ccc(Nc2cn(-c3c(Cl)cccc3Cl)nc2C(N)=O)cn1 [compound 329, 1-(2,6-dichlorophenyl)-4-((6-(5-ethyl-3-(trifluoromethyl)-1H-1,2,4-triazol-1-yl)pyridin-3-yl)amino)-1H-pyrazole-3-carboxamide] | 0.1 to 1 µM
NC(=O)c1nn(-c2c(Cl)cccc2Cl)cc1Nc1ccc(-n2cncn2)nc1 [compound 337, 4-((6-(1H-1,2,4-triazol-1-yl)pyridin-3-yl)amino)-1-(2,6-dichlorophenyl)-1H-pyrazole-3-carboxamide] | 0.1 to 1 µM
CCn1cc(C(F)(F)F)nc1-c1ccc(Nc2cn(-c3c(Cl)cccc3Cl)nc2C(N)=O)cn1 [compound 339, 1-(2,6-dichlorophenyl)-4-((6-(1-ethyl-4-(trifluoromethyl)-1H-imidazol-2-yl)pyridin-3-yl)amino)-1H-pyrazole-3-carboxamide] | 0.1 to 1 µM
CCc1ncnn1-c1ccc(Nc2cn(-c3c(Cl)cccc3Cl)nc2C(N)=O)cn1 [compound 343, 1-(2,6-dichlorophenyl)-4-((6-(5-ethyl-1H-1,2,4-triazol-1-yl)pyridin-3-yl)amino)-1H-pyrazole-3-carboxamide] | 0.1 to 1 µM
NC(=O)c1nn(-c2c(Cl)cccc2Cl)cc1Nc1ccc(N2CCCC2=O)nc1 [compound 345, 1-(2,6-dichlorophenyl)-4-((6-(2-oxopyrrolidin-1-yl)pyridin-3-yl)amino)-1H-pyrazole-3-carboxamide] | 0.1 to 1 µM
Cc1cc(Nc2cn(-c3c(Cl)cccc3Cl)nc2C(N)=O)cnc1-n1cccn1 [compound 346, 1-(2,6-dichlorophenyl)-4-((5-methyl-6-(1H-pyrazol-1-yl)pyridin-3-yl)amino)-1H-pyrazole-3-carboxamide] | 0.1 to 1 µM
NC(=O)c1nn(-c2c(Cl)cccc2Cl)cc1Nc1ccc(C(=O)N2CC[C@H](N)C2)cn1 [compound 368, (S)-4-((5-(3-aminopyrrolidine-1-carbonyl)pyridin-2-yl)amino)-1-(2,6-dichlorophenyl)-1H-pyrazole-3-carboxamide] | 0.1 to 1 µM
NC(=O)c1nn(-c2c(Cl)cccc2Cl)cc1Nc1ccc(C(=O)N2CC(F)(F)C(F)(F)C2)cn1 [compound 369, 1-(2,6-dichlorophenyl)-4-((5-(3,3,4,4-tetrafluoropyrrolidine-1-carbonyl)pyridin-2-yl)amino)-1H-pyrazole-3-carboxamide] | 0.1 to 1 µM
CCOc1cccc(Cl)c1-n1cc(Nc2cnn(C)c2)c(C(N)=O)n1 [compound 372, 1-(2-chloro-6-ethoxyphenyl)-4-((1-methyl-1H-pyrazol-4-yl)amino)-1H-pyrazole-3-carboxamide] | 0.1 to 1 µM
Cc1cccc2[nH]nc(-c3ccc(Nc4cn(-c5c(Cl)cccc5Cl)nc4C(N)=O)cn3)c12 [compound 427, 1-(2,6-dichlorophenyl)-4-((6-(4-methyl-3H-indazol-3-ylidene)-1,6-dihydropyridin-3-yl)amino)-1H-pyrazole-3-carboxamide] | 0.1 to 1 µM
Cn1nnc(-c2ccc(Nc3cn(-c4c(Cl)cccc4Cl)nc3C(N)=O)nc2)n1 [compound 434, 1-(2,6-dichlorophenyl)-4-((5-(2-methyl-2H-tetrazol-5-yl)pyridin-2-yl)amino)-1H-pyrazole-3-carboxamide] | 0.1 to 1 µM
CC1(C)CN(C(=O)c2ccc(Nc3cn(-c4c(Cl)cccc4Cl)nc3C(N)=O)nc2)C1 [compound 465, 1-(2,6-dichlorophenyl)-4-((5-(3,3-dimethylazetidine-1-carbonyl)pyridin-2-yl)amino)-1H-pyrazole-3-carboxamide] | 0.1 to 1 µM

Second part, the compound after the results:

IC50 | Structure (SMILES)
0.1 to 1 µM | Cc1cc(Nc2cn(-c3ccccc3F)nc2C(N)=O)ncn1 [compound 5, 1-(2-fluorophenyl)-4-((6-methylpyrimidin-4-yl)amino)-1H-pyrazole-3-carboxamide]
0.1 to 1 µM | NC(=O)c1nn(-c2c(F)cccc2F)cc1Nc1ccc(N)cn1 [compound 6, 4-((5-aminopyridin-2-yl)amino)-1-(2,6-difluorophenyl)-1H-pyrazole-3-carboxamide]
0.1 to 1 µM | NC(=O)c1nn(-c2c(Cl)cccc2Cl)cc1Nc1ccccc1 [compound 21, 1-(2,6-dichlorophenyl)-4-(phenylamino)-1H-pyrazole-3-carboxamide]
0.1 to 1 µM | CCNC(=O)c1ccc(Nc2cn(-c3c(F)cccc3F)nc2C(N)=O)cn1 [compound 24, 5-((3-carbamoyl-1-(2,6-difluorophenyl)-1H-pyrazol-4-yl)amino)-N-ethylpicolinamide]
0.1 to 1 µM | CCNC(=O)c1ccc(Nc2cn(-c3c(F)cccc3OC)nc2C(N)=O)cn1 [compound 25, 5-((3-carbamoyl-1-(2-fluoro-6-methoxyphenyl)-1H-pyrazol-4-yl)amino)-N-ethylpicolinamide]
0.1 to 1 µM | NC(=O)c1nn(-c2c(Cl)cccc2Cl)cc1Nc1ccc(-n2nnc3ccccc32)cc1 [compound 81, 4-((4-(1H-benzo[d][1,2,3]triazol-1-yl)phenyl)amino)-1-(2,6-dichlorophenyl)-1H-pyrazole-3-carboxamide]
0.1 to 1 µM | NC(=O)c1nn(-c2c(Cl)cccc2Cl)cc1Nc1ccc(-n2c(=O)sc3ccccc32)cc1 [compound 201, 1-(2,6-dichlorophenyl)-4-((4-(2-oxobenzo[d]thiazol-3(2H)-yl)phenyl)amino)-1H-pyrazole-3-carboxamide]
0.1 to 1 µM | NC(=O)c1nn(-c2c(Cl)cccc2Cl)cc1Nc1ccc(-n2nc3c(c2C(F)(F)F)CCCC3)cc1 [compound 236, 1-(2,6-dichlorophenyl)-4-((4-(3-(trifluoromethyl)-4,5,6,7-tetrahydro-2H-indazol-2-yl)phenyl)amino)-1H-pyrazole-3-carboxamide]
0.1 to 1 µM | Cc1cc(C(F)(F)F)nn1-c1ccc(Nc2cn(-c3c(Cl)cccc3Cl)nc2C(N)=O)cc1 [compound 257, 1-(2,6-dichlorophenyl)-4-((4-(5-methyl-3-(trifluoromethyl)-1H-pyrazol-1-yl)phenyl)amino)-1H-pyrazole-3-carboxamide]
0.1 to 1 µM | CC(C)c1nc(C(F)(F)F)nn1-c1ccc(Nc2cn(-c3c(Cl)cccc3Cl)nc2C(N)=O)cc1 [compound 274, 1-(2,6-dichlorophenyl)-4-((4-(5-isopropyl-3-(trifluoromethyl)-1H-1,2,4-triazol-1-yl)phenyl)amino)-1H-pyrazole-3-carboxamide]
0.1 to 1 µM | CCn1nc(C(F)(F)F)nc1-c1ccc(Nc2cn(-c3c(Cl)cccc3Cl)nc2C(N)=O)cc1 [compound 278, 1-(2,6-dichlorophenyl)-4-((4-(1-ethyl-3-(trifluoromethyl)-1H-1,2,4-triazol-5-yl)phenyl)amino)-1H-pyrazole-3-carboxamide]
0.1 to 1 µM | CCCc1nc(C(F)(F)F)nn1-c1ccc(Nc2cn(-c3c(Cl)cccc3Cl)nc2C(N)=O)cc1 [compound 279, 1-(2,6-dichlorophenyl)-4-((4-(5-propyl-3-(trifluoromethyl)-1H-1,2,4-triazol-1-yl)phenyl)amino)-1H-pyrazole-3-carboxamide]
0.1 to 1 µM | CC(C)n1nc(C(F)(F)F)nc1-c1ccc(Nc2cn(-c3c(Cl)cccc3Cl)nc2C(N)=O)cc1 [compound 280, 1-(2,6-dichlorophenyl)-4-((4-(1-isopropyl-3-(trifluoromethyl)-1H-1,2,4-triazol-5-yl)phenyl)amino)-1H-pyrazole-3-carboxamide]
0.1 to 1 µM | CCn1nc(C(F)(F)F)nc1-c1ccc(Nc2cn(-c3c(F)cccc3Cl)nc2C(N)=O)cc1 [compound 289, 1-(2-chloro-6-fluorophenyl)-4-((4-(1-ethyl-3-(trifluoromethyl)-1H-1,2,4-triazol-5-yl)phenyl)amino)-1H-pyrazole-3-carboxamide]
< 0.01 µM | NC(=O)c1nn(-c2c(Cl)cccc2Cl)cc1Nc1ccc(-c2nc(C(F)(F)F)cn2C2COC2)cc1 [compound 301, 1-(2,6-dichlorophenyl)-4-((4-(1-(oxetan-3-yl)-4-(trifluoromethyl)-1H-imidazol-2-yl)phenyl)amino)-1H-pyrazole-3-carboxamide]
0.01 to 0.1 µM | CN(C)CCn1cc(C(F)(F)F)nc1-c1ccc(Nc2cn(-c3c(Cl)cccc3Cl)nc2C(N)=O)cc1 [compound 306, 1-(2,6-dichlorophenyl)-4-((4-(1-(2-(dimethylamino)ethyl)-4-(trifluoromethyl)-1H-imidazol-2-yl)phenyl)amino)-1H-pyrazole-3-carboxamide]
